Columns and labels:
[1] = biological target: T1, Arabidopsis thaliana BioDA variant enzymes (Arabidopsis thaliana, UniProt B0F481, C388D); experiment: biochemical
T1 construct: with the predicted N-terminal mitochondrial transit peptide removed; 6xHis-tag (N); thrombin cleavage site (N); made in house; host or cells: E. coli BL21 (DE3) bioA
Protocol: (§1) These plasmids were then expressed in E. coli BL21 (DE3) bioA with 50 μg/mL kanamycin and 25 μg/mL chloramphenicol selection. Overnight cultures grown at 37° C. were used to inoculate 8×500 mL AIM in shake flasks at a ratio of 1:100. Cultures were grown at 37° C., 200 rpm for 3.5 hours and then overnight at 20° C. Cells were harvested by centrifugation for 30 minutes at 10 000 g. Cells were stored at −80° C. until extraction. 30 g of cell pellet from was thawed in 120 mL of IMAC buffer A (20 mM HEPES pH7.5, 25 mM imidazole, 500 mM sodium chloride, 0.15 mM pyridoxal phosphate, 0.5 mM TCEP, 1× complete Protease Inhibitor Tablet (Roche)). The resuspension was passed through a cell disrupter at 18 000 PSI and centrifuged at 50 000 g for 25 minutes at 4° C. The His-tagged BIO3-BIO1 protein was purified from the extract supernatant on an AKTA avant chromatography system (Cytiva) using a HisTrap FF column and eluted in IMAC buffer B ((20 mM HEPES pH7.5, 500 mM imidazole, 500 mM sodium chloride, 0.15 mM pyridoxal phosphate, 0.5 mM TCEP) followed by SEC using a HiLoad 26/60 Superdex200 column in SEC buffer (25 mM HEPES pH7.5, 150 mM sodium chloride, 0.15 mM pyridoxal phosphate, 0.5 mM TCEP). Protein concentration was measured and calculated using the absorbance at 280 nm. Extracts were diluted 1 in 4 and 10 uL was analysed by SDS PAGE.
(§2) To measure BIO3-BIO1 mutant enzyme activity in the presence of herbicide, herbicides were incubated with 20 μL of enzyme mix (100 mM EPPS pH 8.6, 0.1 mM pyridoxal phosphate, 0.1 mg/mL BSA, 50 nM BIO3-BIO1 enzyme) for 10 minutes at 20° C. in a well of a 96-well half-area black plate, followed by the addition of 20 μL of substrate mix (final concentration of 100 mM EPPS pH 8.6, 0.1 mM pyridoxal phosphate, 0.1 mg/mL BSA, 100 μM spermidine, 20 μM KAPA, 100 mM NaCO3) and further incubation for 75 minutes at 20° C. The reaction was terminated by the addition of 50 μL of derivatisation mix (final concentration of 250 mM borate NaOH pH 9.4, 3.6 mM o-phthalaldehyde, 7 mM β-mercaptoethanol, 17% (v/v) ethanol, 3.6% (v/v) methanol). The fluorescent product produced by the reaction of DAPA with o-phthalaldehyde and 7 mM β-mercaptoethanol was measured at 470 nm after excitation at 410 nm.
(§3) For IC50 calculations, appropriate dose responses of compounds L, M, B, K and G were used. Calculated percentage inhibitions were then input into GraphPad Prism 7 and IC50s calculated using the non-linear regression (vs. normalised response) equation.

[2] = biological target: T2, Arabidopsis thaliana BioDA variant enzymes (Arabidopsis thaliana, UniProt B0F481); experiment: biochemical
T2 construct: with the predicted N-terminal mitochondrial transit peptide removed; 6xHis-tag (N); thrombin cleavage site (N); made in house; host or cells: E. coli BL21 (DE3) bioA
Protocol: as §1, §2, §3

T1 sequence (B0F481 24-833 C388D): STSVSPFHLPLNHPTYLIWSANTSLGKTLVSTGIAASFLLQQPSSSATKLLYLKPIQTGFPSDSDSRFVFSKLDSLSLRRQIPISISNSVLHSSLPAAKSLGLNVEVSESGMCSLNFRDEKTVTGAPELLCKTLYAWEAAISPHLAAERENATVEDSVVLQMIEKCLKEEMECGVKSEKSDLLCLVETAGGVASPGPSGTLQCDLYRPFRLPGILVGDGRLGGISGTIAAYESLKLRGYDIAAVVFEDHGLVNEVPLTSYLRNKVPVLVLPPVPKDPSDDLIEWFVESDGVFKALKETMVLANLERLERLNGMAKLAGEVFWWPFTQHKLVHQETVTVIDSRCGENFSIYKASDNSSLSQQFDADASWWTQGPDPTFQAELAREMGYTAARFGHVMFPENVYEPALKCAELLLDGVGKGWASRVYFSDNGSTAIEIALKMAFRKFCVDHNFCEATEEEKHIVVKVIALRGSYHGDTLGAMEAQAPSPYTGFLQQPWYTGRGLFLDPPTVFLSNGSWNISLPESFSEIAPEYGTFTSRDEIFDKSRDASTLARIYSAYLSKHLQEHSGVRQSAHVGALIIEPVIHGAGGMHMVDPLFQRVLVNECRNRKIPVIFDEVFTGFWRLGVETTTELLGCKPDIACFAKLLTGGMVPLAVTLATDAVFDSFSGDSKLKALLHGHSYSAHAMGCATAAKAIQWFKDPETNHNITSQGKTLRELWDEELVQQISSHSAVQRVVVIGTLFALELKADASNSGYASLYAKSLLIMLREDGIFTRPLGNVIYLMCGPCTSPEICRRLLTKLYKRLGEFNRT

Row | Compound | IC50 [1] [µM] | IC50 [2] [µM]
1 | O=C(O)CC1CCC(=O)N1Cc1cccc(F)c1F (stereo not shown) [Compound G, 2-[1-[(2,3-difluorophenyl)methyl]-5-oxo-pyrrolidin-2-yl]acetic acid] | 361 | 89
2 | O=C(O)CC1CCC(=O)N1Cc1ccc(F)c(F)c1F (stereo not shown) [Compound K, 2-[5-oxo-1-[(2,3,4-trifluorophenyl)methyl]pyrrolidin-2-yl]acetic acid] | 386 | 25
